In patent US20260124214A1, “HETEROCYCLIC COMPOUNDS FOR USE IN THE TREATMENT OF CANCER” (ARTIOS PHARMA LIMITED, priority 2021, published 2026):
Counter-ions that a name gives are not always drawn.

Molecular target: T1, Human Polθ polymerase domain (aa1820-2590) (Homo sapiens, UniProt O75417)
T1 construct: Human Polθ polymerase domain (aa1820-2590) was expressed in E. Coli; made in house; host or cells: E. coli
T1 sequence (O75417 1820-2590): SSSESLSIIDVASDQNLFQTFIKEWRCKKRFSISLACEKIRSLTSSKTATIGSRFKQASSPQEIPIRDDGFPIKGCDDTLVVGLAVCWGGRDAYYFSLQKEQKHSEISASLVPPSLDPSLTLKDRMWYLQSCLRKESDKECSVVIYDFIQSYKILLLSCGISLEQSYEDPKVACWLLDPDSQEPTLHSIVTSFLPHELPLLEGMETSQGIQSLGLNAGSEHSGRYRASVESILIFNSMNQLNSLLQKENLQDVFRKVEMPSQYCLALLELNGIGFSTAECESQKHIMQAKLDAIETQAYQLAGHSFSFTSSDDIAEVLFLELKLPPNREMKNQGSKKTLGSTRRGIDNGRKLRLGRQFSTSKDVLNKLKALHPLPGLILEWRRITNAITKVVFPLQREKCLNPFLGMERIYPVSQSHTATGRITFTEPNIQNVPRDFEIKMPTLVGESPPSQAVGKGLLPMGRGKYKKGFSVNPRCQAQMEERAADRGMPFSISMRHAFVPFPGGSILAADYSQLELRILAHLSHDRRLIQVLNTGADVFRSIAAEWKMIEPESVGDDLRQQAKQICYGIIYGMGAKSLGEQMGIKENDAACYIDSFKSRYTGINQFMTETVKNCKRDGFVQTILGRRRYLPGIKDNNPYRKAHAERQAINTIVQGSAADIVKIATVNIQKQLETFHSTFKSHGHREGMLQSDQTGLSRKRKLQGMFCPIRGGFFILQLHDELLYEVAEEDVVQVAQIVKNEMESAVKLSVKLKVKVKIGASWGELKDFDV
Assay: Polθ Polymerase Domain WT KI Assay (PicoGreen)
Type: biochemical
Conditions: 100 nM DNA substrate, 0.156 nM Polθ, initial rates vs inhibitor concentration
Procedure: A PicoGreen assay was used to measure the KI values of reversible compounds that inhibit the activity of Polθ in vitro.
Human Polθ polymerase domain (aa1820-2590) was expressed in E. Coli, purified, aliquoted and stored at −80° C. until required. Polθ substrate was generated from a 1.2:1 mix of DNA II Short to DNA II Long to give a final concentration of […] substrate in annealing buffer (20 mM Tris pH 7.5, 50 mM NaCl). The substrate was heated in 50 mL aliquots to 95° C. in a heating block for 5 min before the heating block switched off, the reaction left to cool to rt and stored at −20° C. until required.
Assay measurements were performed with 1× buffer comprising 25 mM Tris pH 7.5, 12.5 mM NaCl, […], 5% (v/v) glycerol, 0.01% v/v Triton x-100, 0.1 mg/ml BSA, 1 mM DTT. […] 100 nL of 23×1:1.5-fold serial dilutions and a DMSO only control were dispensed using the Tecan dispenser into Greiner 384 well black low volume plates (product code 784076). DMSO concentration was maintained at 1% of the final assay volume by back filling with DMSO.
To stop the reaction, 5 μL of a solution containing 25 mM Tris-HCl PH 7.5 and 20 mM EDTA was added at […] (t=0, 15, 30, 60, 90, 120, 150, 180 mins) using the Tempest's time delay function. The plates were covered during the time course to prevent evaporation. After completing the assay, 5 μL of detection reagent (25 mM Tris-HCl pH 7.5 and 2.5% (v/v) PicoGreen) was dispensed into the wells using a Tempest liquid handler (Formulatrix) and plates subsequently read on the CLARIOstar Plus (BMG Labtech) using the default optical settings for fluorescein and the auto gain/focus settings.
All data analysis was carried out using GraphPad Prism V.8 (GraphPad Software Inc, San Diego, CA). Time course data for each inhibitor concentration were fitted to the linear regression model in GraphPad Prism. Any time points where the control (DMSO only) reaction was no longer linear were excluded from the analysis. The initial rates (slopes) obtained from the linear regression were then plotted against inhibitor concentration and fitted to an inhibitor vs. response variable slope (four parameter) model on GraphPad Prism to determine the KI values.

Structure (SMILES)	Ki
Cc1cc(C(F)(F)F)cc(N2C(=O)C[C@@H]3CN(CCN4CC[C@@H](C(=O)N(C)C)C4)c4c(Cl)cccc4N(C)C(=O)[C@H]32)n1 [Example 42, (R)-1-(2-((3aR,11aS)-6-Chloro-10-methyl-1-(6-methyl-4-(trifluoromethyl)pyridin-2-yl)-2,11-dioxo-1,2,3,3a,4,10,11,11a-octahydro-5H-benzo[b]pyrrolo[2,3-f][1,4]diazocin-5-yl)ethyl)-N,N-dimethylpyrrolidine-3-carboxamide]	4.96 nM
Cc1cc(C(F)(F)F)cc(N2C(=O)C[C@@H]3CN(CCN4CCN(C(=O)[C@H](C)O)CC4)c4c(C)cccc4N(C)C(=O)[C@H]32)n1 [Example 52, (3aR,11aS)-5-(2-(4-((S)-2-Hydroxypropanoyl)piperazin-1-yl)ethyl)-6,10-dimethyl-1-(6-methyl-4-(trifluoromethyl)pyridin-2-yl)-1,3a,4,5,10,11a-hexahydro-2H-benzo[b]pyrrolo[2,3-f][1,4]diazocine-2,11(3H)-dione hydrochloride]	0.957 nM
Cc1cc(C(F)(F)F)cc(N2C(=O)C[C@@H]3CN(Cc4nc5n(c4C)CCN(C)C5)c4c(C)cccc4N(C)C(=O)[C@H]32)n1 [Example 82, (3aR,11aS)-5-((3,7-Dimethyl-5,6,7,8-tetrahydroimidazo[1,2-a]pyrazin-2-yl)methyl)-6,10-dimethyl-1-(6-methyl-4-(trifluoromethyl)pyridin-2-yl)-1,3a,4,5,10,11a-hexahydro-2H-benzo[b]pyrrolo[2,3-f][1,4]diazocine-2,11(3H)-dione]	0.431 nM
Cc1cc(C(F)(F)F)cc(N2C(=O)C[C@@H]3CN(CC4CCCCN4C)c4c(Cl)cccc4N(C)C(=O)[C@H]32)n1 (single isomer, unassigned) [Example 117a]	3.37 nM
Cc1cc(C(F)(F)F)cc(N2C(=O)C[C@@H]3CN(CC4CCCCN4)c4c(Cl)cccc4N(C)C(=O)[C@H]32)n1 (single isomer, unassigned) [Example 105a]	8.57 nM
Cc1cc(C(F)(F)F)cc(N2C(=O)C[C@@H]3CN(CCN4CC[C@H](C(=O)N(C)C)C4)c4c(C)cccc4N(C)C(=O)[C@H]32)n1 [Example 72, (S)-1-(2-((3aR,11aS)-6,10-Dimethyl-1-(6-methyl-4-(trifluoromethyl)pyridin-2-yl)-2,11-dioxo-1,2,3,3a,4,10,11,11a-octahydro-5H-benzo[b]pyrrolo[2,3-f][1,4]diazocin-5-yl)ethyl)-N,N-dimethylpyrrolidine-3-carboxamide]	0.969 nM
Cc1cc(C(F)(F)F)cc(N2C(=O)C[C@@H]3CN(C[C@H]4CNC[C@@H]4O)c4c(F)cccc4N(C)C(=O)[C@H]32)n1 (relative stereo) [Example 91, (3aR,11aS)-6-Fluoro-5-(((rel-trans)-4-hydroxypyrrolidin-3-yl)methyl)-10-methyl-1-(6-methyl-4-(trifluoromethyl)pyridin-2-yl)-1,3a,4,5,10,11a-hexahydro-2H-benzo[b]pyrrolo[2,3-f][1,4]diazocine-2,11(3H)-dione]	17.3 nM
Cc1cc(C(F)(F)F)cc(N2C(=O)C[C@@H]3CN(CC4CCN(CCF)CC4)c4c(Cl)cccc4N(C)C(=O)[C@H]32)n1 [Example 86, (3aR,11aS)-6-Chloro-5-((1-(2-fluoroethyl)piperidin-4-yl)methyl)-10-methyl-1-(6-methyl-4-(trifluoromethyl)pyridin-2-yl)-1,3a,4,5,10,11a-hexahydro-2H-benzo[b]pyrrolo[2,3-f][1,4]diazocine-2,11(3H)-dione]	1.3 nM
Cc1cc(C(F)(F)F)cc(N2C(=O)C[C@@H]3CN(CCN4CCOCC4)c4c(Cl)cccc4N(C)C(=O)[C@H]32)n1 [Example 20, (3aR,11aS)-6-Chloro-10-methyl-1-(6-methyl-4-(trifluoromethyl)pyridin-2-yl)-5-(2-morpholinoethyl)-1,3a,4,5,10,11a-hexahydro-2H-benzo[b]pyrrolo[2,3-f][1,4]diazocine-2,11(3H)-dione]	1.82 nM
Cc1cc(C(F)(F)F)cc(N2C(=O)C[C@@H]3CN(Cc4cc5n(n4)CCN(C)C5)c4c(Cl)cccc4N(C)C(=O)[C@H]32)n1 [Example 76, (3aR,11aS)-6-Chloro-10-methyl-5-((5-methyl-4,5,6,7-tetrahydropyrazolo[1,5-a]pyrazin-2-yl)methyl)-1-(6-methyl-4-(trifluoromethyl)pyridin-2-yl)-1,3a,4,5,10,11a-hexahydro-2H-benzo[b]pyrrolo[2,3-f][1,4]diazocine-2,11(3H)-dione]	0.458 nM
Cc1cc(C(F)(F)F)cc(N2C(=O)C[C@@H]3CN(CCN4CCN(CCO)CC4)c4c(C)cccc4N(C)C(=O)[C@H]32)n1 [Example 53, (3aR,11aS)-5-(2-(4-(2-Hydroxyethyl)piperazin-1-yl)ethyl)-6,10-dimethyl-1-(6-methyl-4-(trifluoromethyl)pyridin-2-yl)-1,3a,4,5,10,11a-hexahydro-2H-benzo[b]pyrrolo[2,3-f][1,4]diazocine-2,11(3H)-dione]	1.23 nM
Cc1cc(C(F)(F)F)cc(N2C(=O)C[C@@H]3CN(CC[C@H]4CCNC4)c4c(Cl)cccc4N(C)C(=O)[C@H]32)n1 [Example 111, (3aR,11aS)-6-Chloro-10-methyl-1-(6-methyl-4-(trifluoromethyl)pyridin-2-yl)-5-(2-((R)-pyrrolidin-3-yl)ethyl)-1,3a,4,5,10,11a-hexahydro-2H-benzo[b]pyrrolo[2,3-f][1,4]diazocine-2,11(3H)-dione hydrochloride]	0.619 nM
Cc1cc(C(F)(F)F)cc(N2C(=O)C[C@@H]3CN(CCN4CC[C@@H](C#N)C4)c4c(C)cccc4N(C)C(=O)[C@H]32)n1 [Example 71, (R)-1-(2-((3aR,11aS)-6,10-Dimethyl-1-(6-methyl-4-(trifluoromethyl)pyridin-2-yl)-2,11-dioxo-1,2,3,3a,4,10,11,11a-octahydro-5H-benzo[b]pyrrolo[2,3-f][1,4]diazocin-5-yl)ethyl)pyrrolidine-3-carbonitrile]	1.15 nM
Cc1cc(C(F)(F)F)cc(N2C(=O)C[C@@H]3CN(CCN4CC5(COC5)C4)c4c(Cl)cccc4N(C)C(=O)[C@H]32)n1 [Example 29, (3aR,11aS)-5-(2-(2-Oxa-6-azaspiro[3.3]heptan-6-yl)ethyl)-6-chloro-10-methyl-1-(6-methyl-4-(trifluoromethyl)pyridin-2-yl)-1,3a,4,5,10,11a-hexahydro-2H-benzo[b]pyrrolo[2,3-f][1,4]diazocine-2,11(3H)-dione]	1.42 nM
Cc1cc(C(F)(F)F)cc(N2C(=O)C[C@@H]3CN(CCN4CCC(C#N)CC4)c4c(C)cccc4N(C)C(=O)[C@H]32)n1 [Example 69, 1-(2-((3aR,11aS)-6,10-Dimethyl-1-(6-methyl-4-(trifluoromethyl)pyridin-2-yl)-2,11-dioxo-1,2,3,3a,4,10,11,11a-octahydro-5H-benzo[b]pyrrolo[2,3-f][1,4]diazocin-5-yl)ethyl)piperidine-4-carbonitrile]	1.12 nM
Cc1cc(C(F)(F)F)cc(N2C(=O)C[C@@H]3CN(CC4CCN(CCO)CC4)c4c(C)cccc4N(C)C(=O)[C@H]32)n1 [Example 88, (3aR,11aS)-5-((1-(2-Hydroxyethyl)piperidin-4-yl)methyl)-6,10-dimethyl-1-(6-methyl-4-(trifluoromethyl)pyridin-2-yl)-1,3a,4,5,10,11a-hexahydro-2H-benzo[b]pyrrolo[2,3-f][1,4]diazocine-2,11(3H)-dione]	1.3 nM
Cc1cc(C(F)(F)F)cc(N2C(=O)C[C@@H]3CN(C[C@@H]4CCN(C)[C@H](C)C4)c4c(Cl)cccc4N(C)C(=O)[C@H]32)n1 (single isomer, unassigned) [Example 126b]	1.91 nM
